Measurements as given in patent publication US10889553B2, “Asymmetric triazole benzamide derivatives and the compositions and methods of treatment regarding the same” (NysnoBio Ireland DAC, priority 2017, dated 2021).
Like-named read-outs stand apart in the source and are kept apart here.

Assays:
Parkin ligase = target: T1, Parkin ligase (Homo sapiens, UniProt O60260); test: Activity-Based Probe Assay using Ubiquitin vinyl sulfone probe (TR-FRET); type: biochemical; conditions: heat activated Parkin, HA-Ub-VS probe, activation EC50; read-out: Probe Assay EC50 (μM) [Example 2]
T1 sequence (O60260 1-465): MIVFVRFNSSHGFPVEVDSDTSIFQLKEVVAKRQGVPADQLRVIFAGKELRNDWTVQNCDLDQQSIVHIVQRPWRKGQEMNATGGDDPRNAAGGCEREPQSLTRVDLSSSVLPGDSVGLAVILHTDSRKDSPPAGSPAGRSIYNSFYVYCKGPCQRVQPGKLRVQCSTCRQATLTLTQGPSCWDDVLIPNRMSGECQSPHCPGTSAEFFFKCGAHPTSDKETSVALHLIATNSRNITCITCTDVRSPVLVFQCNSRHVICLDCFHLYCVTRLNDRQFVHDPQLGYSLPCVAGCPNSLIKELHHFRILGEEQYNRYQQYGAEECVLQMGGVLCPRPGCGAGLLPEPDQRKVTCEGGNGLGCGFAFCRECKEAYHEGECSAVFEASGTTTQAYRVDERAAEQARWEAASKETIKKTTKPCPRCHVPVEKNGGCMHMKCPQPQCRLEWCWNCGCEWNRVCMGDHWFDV
In short: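 Heat-activated His-Parkin (5 min, 58 °C; 40 nM) was preincubated 15 min with compound, then reacted 60 min at 22 °C with 70 nM HA-Ub-VS in 50 mM HEPES pH 8.5, 150 mM NaCl, 0.01% Tween 20, 0.1% BSA. Probe labelling was read by anti-His-Eu/anti-HA-XL665 TR-FRET (665/615 ratio). % activation was normalized to DMSO and 100 nM control activator, then fitted with a four-parameter curve (Bottom=0, Top=100).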

A549 (lung) = test: Cancer cell proliferation assay (acid phosphatase); type: cell-based; conditions: Table 6A, 72 hrs, read-out: A549 IC50
Experimental: (§1) Measurement of the inhibitive effect of compounds on cancer cell proliferation was performed. Various cell lines were tested, including HCT-116 (colon); A549 (lung); TOV-21G (ovarian); Calu-6 (lung); and LS-174T (colon); and cell lines H1703 (Lung) and SKOV3 (ovarian); JEKO-1 (lymophoma); TOV-112D (ovarian) are tested. The assays were performed under the following conditions: Cells are harvested at a concentration of 4×10^4 cells/ml in media. Volumes of 100 μl/well of these cell suspensions were added to a 96 well plate using a multichannel pipette. Plates were gently agitated to ensure an even dispersion of cells over a given plate. Cells were then incubated at 37° C., 5% CO2 overnight. Following this, 100 μl of compound at varying concentrations was added to wells in triplicate. Control wells are those with 100 μl media containing 0.33% DMSO added to cell suspension (this is the equivalent volume of DMSO found in the highest concentration of drug). Plates were then gently agitated, as above, and incubated at 37° C., 5% CO2 for 72 hrs (control wells have reached 80-90% confluency). Assessment of cell proliferation in the presence of the compound was determined by the acid phosphatase assay.
(§2) Following the incubation period of 72 hrs, media was removed from the plates. Each well on the plate was washed twice with 100 μl PBS. This was then removed and 100 μl of freshly prepared phosphatase substrate (10 mM p-nitrophenol phosphate in 0.1M sodium acetate, 0.1% triton X-100, pH 5.5) was added to each well. The plates were then incubated in the dark at 37° C. for 2 hours. Colour development was monitored during this time. The enzymatic reaction was stopped by the addition of 50 μl of 1N NaOH. The plate was read in a dual beam plate reader at 405 nm with a reference wavelength of 620 nm. The absorbance reading of the latter is subtracted from the former, and the effect of the drug on cell proliferation was then measured as a percentage against the control cells (DMSO), which is taken as 0% inhibition.

HCT-116 (colon) = test: Cancer cell proliferation assay (acid phosphatase); type: cell-based; conditions: Table 6A, 72 hrs, read-out: HCT-116 IC50
Experimental: as §1, §2

TOV-21G (ovarian) = test: Cancer cell proliferation assay (acid phosphatase); type: cell-based; conditions: Table 6A, 72 hrs, read-out: TOV-21G IC50
Experimental: as §1, §2

LS-174T (colon) = test: Cancer cell proliferation assay (acid phosphatase); type: cell-based; conditions: Homo sapiens, LS174T; Table 6A; 72 hrs
Experimental: as §1, §2

[1] = Microsomal stability assay, human liver microsomes; type: in vitro ADME; conditions: pH 7.4; human liver microsomes 1.0 mg/mL, 1 μM compound, NADPH; read-out: HLM t1/2
Experimental: (§3) Compounds were also tested for metabolic stability in both rat liver microsomes (RLM) and the compounds are tested for human liver microsomes (HLM) and their half-life is calculated (See Tables 5A and 5B). The assay was performed as follows. The total volume for each incubation was 250 μL. A 100 μM DMSO solution of compound (diluted from 10 mM stock solution) was spiked into 50 mM KH2PO4 (pH 7.4) buffer containing liver microsome at a concentration of 1.0 mg/mL. The reaction was initiated by the addition of 50 μL of 1 mM NADPH. The final concentration of each compound was 1 μM (1% DMSO). The positive controls, phenacetin for CYP1A2, diclofenac for CYP2C9, omeprazole for CYP2C19, dextromethorphan for CYP2D6 and midazolam for CYP3A4 were added to a separate tube with the final substrate concentrations of 1 μM (1% DMSO) for evaluating the enzyme activities in the liver microsomes. At 0, 15, 30 and 60 min, an aliquot of 15 μL reaction mixtures were removed and 200 μL of methanol (with internal standard of 25 ng/mL propranolol) was added to quench the reaction. The resulting mixture was centrifuged and supernatant was used for LC-MS/MS analysis.
(§4) The signals for each compound, or the metabolites for the probe substrates and the internal standard were integrated and the peak area ratios to internal standard were generated. Percent parent remaining at a specified timepoint was calculated based on the peak area ratios at time 0 (as 100%) for in vitro metabolic stability studies in liver microsome and hepatocyte. The observed rate constant (kobs) for the metabolism of substrates was calculated by plotting the natural log of percentage substrate remaining versus time of incubation with the slope being kobs. The half-life (T1/2) was calculated according to the following equation: T1/2=[…]

[2] = Microsomal stability assay, rat liver microsomes; type: in vitro ADME; conditions: pH 7.4; rat liver microsomes 1.0 mg/mL, 1 μM compound, NADPH; read-out: RLM t1/2
Experimental: as §3, §4

JEKO-1 (lymophoma) = test: Cancer cell proliferation assay (acid phosphatase); type: cell-based; conditions: Homo sapiens, Table 6B, 72 hrs, read-out: JEKO-1 IC50
Experimental: as §1, §2

TOV-112D (ovarian) = test: Cancer cell proliferation assay (acid phosphatase); type: cell-based; conditions: Homo sapiens, TOV112D; Table 6B; 72 hrs; read-out: TOV-112D IC50
Experimental: as §1, §2

SMILES | EC50 (Parkin ligase) [µM] | IC50 (A549 (lung); Homo sapiens, A549, 72 h) [nM] | IC50 (HCT-116 (colon); Homo sapiens, HCT-116, 72 h) [nM] | IC50 (TOV-21G (ovarian); Homo sapiens, TOV21G, 72 h) [nM] | also measured
Cc1ccccc1C(=O)Nc1nc(NC(=O)c2ccccc2C)n(-c2ccc(N3CCN(C(=O)OC(C)(C)C)CC3)cc2)n1 [Compound 59] | 3 | 810000 | 801000 |  | IC50 (TOV-21G (ovarian); Homo sapiens, TOV21G, 72 h, heading: TOV-21G IC50): 938 nM
Cc1ccccc1C(=O)Nc1nc(NC(=O)c2ccccc2C)n(-c2ccc(N3CCC3)cc2)n1 [Compound 64] | 8 | 2400 | 2300 | 2400 | IC50 (LS-174T (colon)): 2600 nM
Cc1ccccc1C(=O)Nc1nc(NC(=O)c2ccno2)n(-c2ccc(OC(F)(F)F)cc2)n1 [Compound 71] | 3 | 2400 | 2500 |  | 
Cc1ccccc1C(=O)Nc1nc(NC(=O)c2ccno2)n(-c2ccc(C(F)(F)F)cc2)n1 [Compound 75] | 4 | 2500 | 2400 |  | IC50 (LS-174T (colon)): 1000 nM
Cc1ccccc1C(=O)Nc1nc(NCc2ccccc2)nn1-c1ccc(Cl)cc1 [Compound 108] | 1.5 | > 2500 | > 2500 | > 2500 | 
Cc1ccccc1C(=O)Nc1nc(NCc2ccccc2Cl)nn1-c1ccc(OC(F)(F)F)cc1 [Compound 116] | 2 | > 2500 | > 2500 | > 2500 | 
Cc1ccccc1C(=O)Nc1nc(-c2cccc(F)n2)nn1-c1ccc(OC(F)(F)F)cc1 [Compound 129] | 3 | 2500 | 2400 | 2000 | 
COc1ccccc1-c1nc(NC(=O)c2ccccc2C)n(-c2ccc(OC(F)(F)F)cc2)n1 [Compound 154] |  |  | > 2500 |  | half-life at 1 μM [1]: 2.22 h; half-life at 1 μM [2]: 1.7 h
Cc1ccccc1C(=O)Nc1nc(-c2ccccc2O)nn1-c1ccc(Cl)cc1 [Compound 155] |  |  | 240 |  | half-life at 1 μM [1]: 1.06 h; IC50 (JEKO-1 (lymophoma)): 40 nM; IC50 (TOV-112D (ovarian)): 40 nM; half-life at 1 μM [2]: 0.29 h
Cc1ccccc1C(=O)Nc1nc(-c2ccccc2O)nn1-c1ccc(C(F)(F)F)cc1 [Compound 156] |  |  | 240 |  | half-life at 1 μM [1]: 2.63 h; IC50 (JEKO-1 (lymophoma)): 80 nM; IC50 (TOV-112D (ovarian)): 40 nM; half-life at 1 μM [2]: 0.395 h
Cc1ccccc1C(=O)Nc1nc(-c2cc(Cl)ccc2O)nn1-c1ccc(OC(F)(F)F)cc1 [Compound 158] |  |  | 240 |  | half-life at 1 μM [1]: 2.75 h; IC50 (JEKO-1 (lymophoma)): 200 nM; IC50 (TOV-112D (ovarian)): 190 nM; half-life at 1 μM [2]: 2.82 h
Cc1ccc(O)c(-c2nc(NC(=O)c3ccccc3C)n(-c3ccc(OC(F)(F)F)cc3)n2)c1 [Compound 159] |  |  | 300 |  | half-life at 1 μM [1]: 2.97 h; IC50 (JEKO-1 (lymophoma)): 90 nM; IC50 (TOV-112D (ovarian)): 60 nM; half-life at 1 μM [2]: 2.63 h
Cc1cccc(C(=O)Nc2nc(NC(=O)c3cccc(C)c3)n(-c3ccccc3)n2)c1 [Compound F3] |  | 2300 | 2000 | 2300 | 

Continued, in another order:

EC50 (Parkin ligase) [µM] | IC50 (A549 (lung); Homo sapiens, A549, 72 h) [nM] | IC50 (HCT-116 (colon); Homo sapiens, HCT-116, 72 h) [nM] | IC50 (TOV-21G (ovarian); Homo sapiens, TOV21G, 72 h) [nM] | SMILES | also measured
12 | 2500 | 2500 |  | Cc1ccccc1C(=O)Nc1nc(NC(=O)c2ccno2)n(-c2cccc(F)c2)n1 [Compound 73] | 
2 | 1400 | 1700 | 1900 | Cc1cccc(-c2nc(NC(=O)c3ccccc3C)n(-c3ccc(OC(F)(F)F)cc3)n2)n1 [Compound 126] | IC50 (LS-174T (colon)): 1000 nM
2 | 1100 | 1700 | 2100 | Cc1cccc(-c2nc(NC(=O)c3ccccc3C)n(-c3ccc(Cl)cc3)n2)n1 [Compound 127] | IC50 (LS-174T (colon)): 1600 nM
5 | 2500 | 2500 | 2400 | Cc1ccccc1C(=O)Nc1nc(-c2cccc(F)n2)nn1-c1cccc(F)c1 [Compound 128] | 
2 | 2300 | 2300 | 2200 | Cc1ccccc1C(=O)Nc1nc(-c2cccc(F)n2)nn1-c1ccc(C(F)(F)F)cc1 [Compound 131] | 
3 |  |  |  | Cc1ccccc1C(=O)Nc1nc(-c2cccc(F)n2)nn1-c1cccc(F)c1 [Compound 132] | IC50 (A549 (lung)): 2400 nM; IC50 (HCT-116 (colon)): 2200 nM; IC50 (TOV-21G (ovarian)): 1900 nM
1 | 2500 | 2300 | 1800 | Cc1cccc(-c2nc(NC(=O)c3ccccc3C)n(-c3ccc(C(F)(F)F)cc3)n2)n1 [Compound 133] | 
4 | 2600 | 2300 | 1800 | Cc1ccccc1C(=O)Nc1nc(-c2cccc(F)n2)nn1-c1ccc(Cl)cc1 [Compound 134] | 
1 | 300 | 400 | 500 | Cc1ccccc1C(=O)Nc1nc(-c2ncccc2C)nn1-c1cccc(F)c1 [Compound 146] | 
 |  | 350 |  | Cc1ccccc1C(=O)Nc1nc(-c2ccccc2O)nn1-c1cccc(F)c1 [Compound 157] | half-life at 1 μM [1]: 0.7 h; IC50 (JEKO-1 (lymophoma)): 80 nM; IC50 (TOV-112D (ovarian)): 120 nM; half-life at 1 μM [2]: 0.275 h
